Patent publication US20010044445A1, “AZOLE INHIBITORS OF CYTOKINE PRODUCTION” (priority 1999, published 2001)

Tests used:
[1] = tested on: Human peripheral blood mononuclear cells; assay: Human Concanavalin-A Proliferation Assay (Con HU Assay); assay type: cell-based; settings: Homo sapiens, PBMC, concanavalin-A stimulated human PBMC; for inhibition at 100 µM / inhibition at 10 µM / inhibition at 1 µM: 72 h, 3 days, read-out: % Inhibition of proliferation (at concentrations of 1,10, or 100 μm); for inhibition at 100 µM: concentration 100 μm (in parentheses in the cell); for IC50: tritiated thymidine; for inhibition at 10 µM: concentration 10 μm (in parentheses in the cell); for inhibition at 1 µM: concentration 1 μm (in parentheses in the cell)
Summary of the method: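 Proliferation read as tritiated thymidine uptake (0.5 μCi/well, 6 h pulse on day 3) in human PBMC cultured 3 days with 2.5 μg/ml (final) concanavalin-A. Cells, 50,000 per well in supplemented RPMI 1640 with 10% FBS, received compound 15 min before mitogen.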

Compound	melting point [°C]	inhibition at 100 µM [1] [%]	IC50 [1] [nM]	inhibition at 10 µM [1] [%]	inhibition at 1 µM [1] [%]
O=C(Nc1ccc(-n2nc(C(F)(F)F)cc2C(F)(F)F)cc1)c1ccc(F)cc1 [Example 90, N-[4-[3,5-bis(trifluoromethyl)-1H-pyrazol-1-yl]phenyl]-4-fluorobenzamide]	184 to 186	98	144	–	–
COC(=O)c1ccc(C(=O)Nc2ccc(-n3nc(C(F)(F)F)cc3C(F)(F)F)cc2)cc1 [Example 142, methyl 4-[[[4-[3,5-bis(trifluoromethyl)-1H-pyrazol-1-yl]phenyl]amino]carbonyl]benzoate]	195 to 196	–	489	99	–
CC(=O)Oc1ccccc1C(=O)Nc1ccc(-n2nc(C(F)(F)F)cc2C(F)(F)F)cc1 [Example 76, 2-(Acetyloxy)-N-[4-[3,5-bis(trifluoromethyl)-1H-pyrazol-1-yl]phenyl]benzamide]	159 to 161	100	3170	–	–
O=C(Nc1ccc(F)cc1)c1ccc(-n2nc(C(F)(F)F)cc2C(F)(F)F)cc1 [Example 30, 4-[3,5-bis(trifluoromethyl)-1H-pyrazol-1-yl]-N-(4-fluorophenyl)benzamide]	194 to 195	–	–	–	6
O=C(Nc1ccc(-n2nc(C(F)(F)F)cc2C(F)(F)F)cc1)c1ccccc1C(F)(F)F [Example 127, N-[4-[3,5-bis(trifluoromethyl)-1H-pyrazol-1-yl]phenyl]-2-(trifluoromethyl)benzamide]	133 to 135	100	487	–	–
O=C(Nc1ccc(-n2nc(C(F)(F)F)cc2C(F)(F)F)cc1)c1ccc(Cl)nc1Cl [Example 149, N-[4-[3,5-bis(trifluoromethyl)-1H-pyrazol-1-yl]phenyl]-2,6-dichloro-3-pyridinecarboxamide]	115 to 117	100	336	–	–
O=C(Nc1ccc(-n2nc(C(F)(F)F)cc2C(F)(F)F)cc1)c1ccoc1 [Example 14, N-[4-[3,5-bis(trifluoromethyl)-1H-pyrazol-1-yl]phenyl]-3-furancarboxamide]	206 to 207	97	538	–	–
O=C(Nc1cccc(-n2nc(C(F)(F)F)cc2C(F)(F)F)c1)c1ccc(F)cc1 [Example 202, N-[3-[3,5-bis(trifluoromethyl)-1H-pyrazol-1-yl]phenyl]-4-fluorobenzamide]	150 to 152	–	–	–	6
O=C(Nc1ccc(-n2nc(C(F)(F)F)cc2C(F)(F)F)cc1)c1ccc(CO)cc1 [Example 107, N-[4-[3,5-bis(trifluoromethyl)-1H-pyrazol-1-yl]phenyl]-4-(hydroxymethyl)benzamide]	213 to 214	–	304	99	–
O=C(Nc1ccc(-n2nc(C(F)(F)F)cc2C(F)(F)F)cc1)C1CCCCCC1 [Example 18, N-[4[3,5-bis(trifluoromethyl)-1H-pyrazol-1-yl]phenyl]cycloheptanecarboxamide]	174 to 175	100	374	–	–
CC#CC(=O)Nc1ccc(-n2nc(C(F)(F)F)cc2C(F)(F)F)cc1 [Example 12, N-[4-[3,5-bis(trifluoromethyl)-1H-pyrazol-1-yl]phenyl]-2-butynamide]	220 to 221	–	427	98	–
O=C(Nc1ccc(-n2nc(C(F)(F)F)cc2C(F)(F)F)cc1)c1ccc(O)c([N+](=O)[O-])c1 [Example 180, N-[4-[3,5-bis(trifluoromethyl)-1H-pyrazol-1-yl]phenyl]-4-hydroxy-3-nitrobenzamide]	193 to 194	–	2870	95	–
CN(C)c1cccc(C(=O)Nc2ccc(-n3nc(C(F)(F)F)cc3C(F)(F)F)cc2)c1 [Example 88, N-[4-[3,5-bis(trifluoromethyl)-1H-pyrazol-1-yl]phenyl]-3-(dimethylamino)benzamide]	180 to 181	–	–	–	29
O=C(Cc1cc2ccccc2[nH]1)Nc1ccc(-n2nc(C(F)(F)F)cc2C(F)(F)F)cc1 [Example 170, N-[4-[3,5-bis(trifluoromethyl)-1H-pyrazol-1-yl]phenyl]-1H-indole-2-acetamide]	176 to 178	–	–	–	25
Cc1cc(Br)cc(C)c1NC(=O)Nc1ccc(-n2nc(C(F)(F)F)cc2C(F)(F)F)cc1 [Example 45, N-[4-[3,5-bis(trifluoromethyl)-1H-pyrazol-1-yl]phenyl]-N′-(4-bromo-2,6-dimethylphenyl)urea]	> 230	–	–	–	18
O=C(Nc1ccc(-n2nc(C(F)(F)F)cc2C(F)(F)F)cc1)Nc1ccc([N+](=O)[O-])cc1Cl [Example 41, N-[4-[3,5-bis(trifluoromethyl)-1H-pyrazol-1-yl]phenyl]-N′-(2-chloro-4-nitrophenyl)urea]	229 to 230	–	343	100	–

The next lines start with results.

melting point [°C]	Compound	inhibition at 100 µM [1] [%]	IC50 [1] [nM]	inhibition at 10 µM [1] [%]	inhibition at 1 µM [1] [%]
109 to 112	O=C(Nc1ccc(-n2nc(C(F)(F)F)cc2Br)cc1)c1cccc(F)c1F [Example 348, N-(4-(5-bromo-3-(trifluoromethyl)-1H-pyrazol-1-yl)phenyl)-2,3-difluorobenzamide]	–	114	–	–
122 to 124	O=C(Nc1ccc(-n2nc(C(F)(F)F)cc2C(F)(F)F)cc1)c1ccc(F)c(F)c1F [Example 226, N-[4-[3,5-bis(trifluoromethyl)-1H-pyrazol-1-yl]phenyl]-2,3,4-trifluorobenzamide]	–	43	100	–
144 to 145	Cc1nc(C)n(-c2ccc(NC(=O)c3snnc3C)cc2)n1 [Example 289, N-[4-(3,5-dimethyl-1H-1,2,4-triazol-1-yl)phenyl]-4-methyl-1,2,3-thiadiazole-5-carboxamide]	–	–	–	22
179 to 181	COc1ccc(Br)c(C(=O)Nc2ccc(-n3nc(C(F)(F)F)cc3C(F)(F)F)cc2)c1 [Example 219, N-[4-[3,5-bis(trifluoromethyl)-1H-pyrazol-1-yl]phenyl]-2-bromo-5-methoxybenzamide]	–	214	100	–
140 to 143	COc1ccc(C(=O)Nc2ccc(-n3nc(C(F)(F)F)cc3C(F)(F)F)cc2)c(Cl)c1 [Example 215, N-[4-[3,5-bis(trifluoromethyl)-1H-pyrazol-1-yl]phenyl]-2-chloro-4-methoxybenzamide]	–	126	100	–
138 to 140	O=C(Nc1ccc(-n2nc(C(F)(F)F)cc2-c2cccnc2)cc1)c1ccccc1F [Example 310, 2-fluoro-N-(4-(5-(3-pyridinyl)-3-(trifluoromethyl)-1H-pyrazol-1-yl)phenyl)benzamide]	–	335	–	–
122 to 123	Cc1nnsc1C(=O)Nc1ccc(-n2nc(C(F)(F)F)cc2OC(F)F)cc1 [Example 323, N-(4-(5-(difluoromethoxy)-3-(trifluoromethyl)-1H-pyrazol-1-yl)phenyl)-4-methyl-1,2,3-thiadiazole-5-carboxamide]	–	238	–	–
